Drawing on patent US20050020588A1, “Cysteine protease inhibitors” (priority 1999, published 2005), this text covers Ki for 30 molecules.

Assay type in all cases: biochemical
One test concerns the target Mammalian Cathepsin S (Homo sapiens, UniProt P25774). The test can be described thus: Ki competitive inhibition, mammalian cathepsin S. Particulars: Table 1, first line of each CAP-P2 block; read-out: Ki competitive inhibition measurements vs Mammalian Cathepsin S. Here is the method: Cathepsin S (Mammalian, murine and rat)
Assays were performed in 100 mM sodium phosphate, 100 mM NaCl, pH 6.5 (buffer) in white 384 well plates (Coming Costar). Eight inhibitors were assayed per plate.
Inhibitor dilutions were performed on a 96 well V-bottomed polypropylene plate (Corning Costar). 100 μl of buffer was placed in wells 2-5 and 7-12 of rows A, B, C and D. Sufficient of each inhibitor at 10 mM in DMSO was placed into wells A1-D1 and A6-D6 to give the desired final concentration when the volume in the well was made up to 200 μl with buffer. Column 1 was made up to 200 μl with buffer, mixed by aspirating and dispensing 100 μl in the well, and 100 μl transferred to column 2. The pipette tips were changed and the mixing and transferral repeated to column 5. This process was repeated for columns 6-10.
Substrate dilutions were performed on a 96 deep well polypropylene plate (Beckman Coulter). 280 μl of buffer was placed in wells B-H of columns 1 and 2.70 μl of 10 mM boc-Val-Leu-Lys-AMC was placed in A1 and A2. 2×250 μl of buffer was added to wells A1 and A2, mixed by aspirating and dispensing 280 μl in the well, and 280 μl transferred to row B. The pipette tips were changed and the process repeated down the plate to row H.
Column 1 of the substrate dilution plate was distributed at 10 μl per well into alternate rows beginning at row A. Column 2 was distributed to alternate rows beginning at row B. Row A of the inhibitor dilution plate was distributed at 10 μl per well to alternate rows and columns starting at A1. Row B was distributed to alternate rows and columns starting at A2. Row C was distributed to alternate rows and columns starting at B1 and row D was distributed to alternate rows and columns starting at B2. The assay was started by the addition of 30 μl per well of 20 nM cathepsin S in buffer containing 10 mM 2-mercaptoethanol.
(§1) Data were saved as text files and imported into Excel. The initial rates were determined by linear regression and then fitted to the competitive inhibition equation using SigmaPlot.

The next test has as its target Mammalian Cathepsin L (Homo sapiens, UniProt P07711). In words: Ki competitive inhibition, cathepsin L. Particulars: Table 1, second line of each CAP-P2 block; read-out: Ki competitive inhibition measurements vs Mammalian Cathepsin L. Here is the method: as §1
(§2) Assays were performed essentially as above. For cathepsin L, the buffer used was 100 mM sodium acetate, 1 mM EDTA, pH 5.5 and the substrate was D-Val-Leu-Lys-AMC with a highest concentration of 100 μM. For cathepsin K, the buffer used was 100 mM MES/Tris, 1 mM EDTA, pH 7.0 and the substrate was D-Ala-Leu-Lys-AMC with a highest concentration of 250 μM.

The next test addresses T1, Mammalian Cathepsin K (Homo sapiens, UniProt P43235).
T1 sequence (P43235 115-329): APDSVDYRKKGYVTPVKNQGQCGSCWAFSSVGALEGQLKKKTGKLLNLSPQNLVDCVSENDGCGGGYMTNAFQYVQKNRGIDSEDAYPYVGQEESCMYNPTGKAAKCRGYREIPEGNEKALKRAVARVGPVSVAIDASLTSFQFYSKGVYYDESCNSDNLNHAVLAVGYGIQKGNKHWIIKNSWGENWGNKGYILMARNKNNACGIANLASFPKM
In words: Ki competitive inhibition, cathepsin K. Particulars: Table 1, third line of each CAP-P2 block; read-out: Ki competitive inhibition measurements vs Mammalian Cathepsin K. As to the method: as §2
Convenient assays for cathepsin K arere carried out using human recombinant enzyme. Standard assay conditions for the determination of kinetic constants used a fluorogenic peptide substrate, typically H-D-Ala-Leu-Lys-AMC, and were determined in either 100 mM Mes/Tris, pH 7.0 containing 1 mM EDTA and 10 mM 2-mercaptoethanol or 100 mM Na acetate, pH 5.5 containing 5 mM EDTA and 20 mM cysteine. The enzyme concentration used was 5 nM. The stock substrate solution was prepared at 10 mM in DMSO. Screens were carried out at a fixed substrate concentration of 60 μM and detailed kinetic studies with doubling dilutions of substrate from 250 μM. The total DMSO concentration in the assay was kept below 3%. All assays were conducted at ambient temperature. Product fluorescence (excitation at 390 nm, emission at 460 nm) was monitored with a Labsystems Fluoroskan Ascent fluorescent plate reader. Product progress curves were generated over 15 minutes following generation of AMC product.
Potential inhibitors are screened using the above assay with variable concentrations of test compound. Reactions were initiated by addition of enzyme to buffered solutions of substrate and inhibitor. Ki values were calculated according to equation 1 [formula] where ν0 is the velocity of the reaction, V is the maximal velocity, S is the concentration of substrate with Michaelis constant of KM, and I is the concentration of inhibitor. Determination of Falcipain 2 Proteolytic Catalytic Activity

Sequence of Mammalian Cathepsin S (P25774 115-331): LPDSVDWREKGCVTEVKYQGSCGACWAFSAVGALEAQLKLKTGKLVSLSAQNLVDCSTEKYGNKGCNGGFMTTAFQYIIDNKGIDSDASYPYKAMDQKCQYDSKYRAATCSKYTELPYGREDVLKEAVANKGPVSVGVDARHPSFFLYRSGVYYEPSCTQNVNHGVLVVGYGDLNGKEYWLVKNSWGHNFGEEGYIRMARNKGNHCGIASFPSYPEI
Sequence of Mammalian Cathepsin L (P07711 114-333): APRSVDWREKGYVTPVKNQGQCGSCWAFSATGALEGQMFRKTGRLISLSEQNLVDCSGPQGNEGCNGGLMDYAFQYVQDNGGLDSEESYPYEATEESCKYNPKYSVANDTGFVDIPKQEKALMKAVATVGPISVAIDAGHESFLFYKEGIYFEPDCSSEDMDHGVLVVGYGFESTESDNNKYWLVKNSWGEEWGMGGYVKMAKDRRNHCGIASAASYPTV

With `CC(C)C[C@H](NC(=O)c1ccc(O)cc1)C(=O)N[C@H]1C(=O)CO[C@H]1C` [CAP1-L-Leu/drawing 70], the inhibitory constant (Ki) (usually the dissociation constant of the complex between target and ligand, obtained from inhibition or displacement) at Mammalian Cathepsin S is 0.23 µM; on Mammalian Cathepsin L, 2.7 µM; on Mammalian Cathepsin K it was 0.41 µM.
In the same order, the values of `CC(C)C[C@H](NC(=O)c1ccc(O)cc1)C(=O)N[C@@H]1COCC1=O` [CAP1-L-Leu/drawing 73] are 0.27 µM, 0.39 µM and 0.07 µM.
Taken in the same sequence, the figures for `CCCC[C@H](NC(=O)c1ccc(O)cc1)C(=O)N[C@@H]1C(=O)CO[C@H]1C` [CAP1-L-Nle/drawing 71] were 0.4 µM, 19.3 µM and 8.9 µM.
Taken in the same sequence, the figures for `CCCC[C@H](NC(=O)c1ccc(O)cc1)C(=O)N[C@H]1COCC1=O` [CAP1-L-Nle/drawing 72] were 0.56 µM, 3.3 µM and 1.4 µM.
Turning to `CCCC[C@H](NC(=O)c1ccc(O)cc1)C(=O)N[C@@H]1COCC1=O` [CAP1-L-Nle/drawing 73], the Ki on Mammalian Cathepsin S was determined as 0.49 µM; on Mammalian Cathepsin L, 4.4 µM; on Mammalian Cathepsin K it was 1.15 µM.
Taken in the same sequence, the figures for `C[C@@H]1OCC(=O)[C@@H]1NC(=O)[C@H](Cc1ccc(O)cc1)NC(=O)c1ccc(O)cc1` [CAP1-L-Tyr/drawing 70] were 1 µM, 1.8 µM and more than 100 µM.
Taken in the same sequence, the figures for `O=C(NC(Cc1ccc(O)cc1)C(=O)NC1COCC1=O)c1ccc(O)cc1` [CAP1-L-Tyr/drawing 72] were 0.86 µM, 0.33 µM and 27.1 µM.
On to `CC(C)CC[C@H](NC(=O)c1ccc(O)cc1)C(=O)N[C@H]1C(=O)CO[C@H]1C` [CAP1-L-hLeu/drawing 70], for which the Ki on Mammalian Cathepsin S amounted to 0.3 µM; on Mammalian Cathepsin L, 29.8 µM; at Mammalian Cathepsin K, 24.1 µM.
Consider `C[C@H]1OCC(=O)[C@H]1NC(=O)[C@H](CC(C)(C)C)NC(=O)c1ccc(O)cc1` [CAP1-L-tBu-Ala/drawing 69], for which the Ki was 0.25 µM at Mammalian Cathepsin S, 3.9 µM on Mammalian Cathepsin L and 0.39 µM at Mammalian Cathepsin K.
Turning to `C[C@H]1OCC(=O)[C@H]1NC(=O)[C@H](Cc1ccc(O)cc1)NC(=O)Cc1ccccc1` [CAP2-L-Tyr/drawing 69], the inhibition constant (Ki) is 3.2 µM at Mammalian Cathepsin S, 0.22 µM at Mammalian Cathepsin L and more than 100 µM on Mammalian Cathepsin K.
Taken in the same sequence, the figures for `CCCC[C@H](NC(=O)c1ccccc1)C(=O)N[C@H]1COCC1=O` [CAP3-L-Nle/drawing 72] were 0.76 µM, 2.8 µM and 5.8 µM.
Taken in the same sequence, the figures for `C[C@H]1OCC(=O)[C@H]1NC(=O)[C@H](Cc1ccc(O)cc1)NC(=O)c1ccccc1` [CAP3-L-Tyr/drawing 69] were 1.1 µM, 0.17 µM and more than 100 µM.
Regarding `C[C@@H]1OCC(=O)[C@@H]1NC(=O)[C@H](Cc1ccc(O)cc1)NC(=O)c1ccccc1` [CAP3-L-Tyr/drawing 70], the Ki on Mammalian Cathepsin S is 0.17 µM; on Mammalian Cathepsin L it was 1.4 µM; at Mammalian Cathepsin K, more than 100 µM.
Take `O=C(N[C@@H](Cc1ccc(O)cc1)C(=O)N[C@H]1COCC1=O)c1ccccc1` [CAP3-L-Tyr/drawing 72]: the Ki at Mammalian Cathepsin S is 1.6 µM; on Mammalian Cathepsin L, 0.25 µM; on Mammalian Cathepsin K it was more than 100 µM.
In the same order, the values of `CC(C)C[C@H](NC(=O)c1cccs1)C(=O)N[C@@H]1C(=O)CO[C@@H]1C` [CAP5-L-Leu/drawing 69] are 0.48 µM, 1.48 µM and 0.29 µM.
Regarding `C[C@H]1OCC(=O)[C@H]1NC(=O)[C@H](Cc1ccc(O)cc1)NC(=O)c1cccs1` [CAP5-L-Tyr/drawing 69], the inhibitory constant (Ki) on Mammalian Cathepsin S is 1.6 µM; at Mammalian Cathepsin L it was 0.5 µM; on Mammalian Cathepsin K it was more than 100 µM.
Taken in the same sequence, the figures for `C[C@H]1OCC(=O)[C@H]1NC(=O)[C@H](CC(C)(C)C)NC(=O)c1cccs1` [CAP5-L-tBu-Ala/drawing 69] were 0.47 µM, 24.6 µM and 0.65 µM.
In the same order, the values of `Cc1cc(C(=O)N[C@@H](CC(C)C)C(=O)N[C@H]2C(=O)CO[C@H]2C)oc1C` [CAP6-L-Leu/drawing 70] are 0.61 µM, 1.1 µM and 0.75 µM.
For `Cc1cc(C(=O)N[C@@H](CC(C)C)C(=O)N[C@@H]2C(=O)CO[C@H]2C)oc1C` [CAP6-L-Leu/drawing 71], the Ki on Mammalian Cathepsin S was determined as 0.68 µM; on Mammalian Cathepsin L it was 0.67 µM; at Mammalian Cathepsin K, 2.75 µM.
In the same order, the values of `Cc1cc(C(=O)N[C@@H](CC(C)C)C(=O)N[C@@H]2COCC2=O)oc1C` [CAP6-L-Leu/drawing 73] are 0.48 µM, 0.19 µM and 0.33 µM.
Taken in the same sequence, the figures for `Cc1cc(C(=O)N[C@@H](Cc2ccc(O)cc2)C(=O)N[C@@H]2C(=O)CO[C@@H]2C)oc1C` [CAP6-L-Tyr/drawing 69] were 2 µM, 0.055 µM and more than 100 µM.
Taken in the same sequence, the figures for `Cc1cc(C(=O)N[C@@H](Cc2ccc(O)cc2)C(=O)N[C@H]2C(=O)CO[C@H]2C)oc1C` [CAP6-L-Tyr/drawing 70] were 0.24 µM, 0.67 µM and more than 100 µM.
For the molecule `Cc1cc(C(=O)N[C@@H](Cc2ccc(O)cc2)C(=O)N[C@@H]2COCC2=O)oc1C` [CAP6-L-Tyr/drawing 73], the Ki was 2.3 µM on Mammalian Cathepsin S, 0.14 µM on Mammalian Cathepsin L and more than 100 µM at Mammalian Cathepsin K.
Taken in the same sequence, the figures for `CC(C)C[C@H](NC(=O)c1ccc(N(C)C)cc1)C(=O)N[C@H]1C(=O)CO[C@H]1C` [CAP7-L-Leu/drawing 70] were 4.2 µM, 6.8 µM and 0.17 µM.
Taken in the same sequence, the figures for `CC(C)C[C@H](NC(=O)c1ccc(N(C)C)cc1)C(=O)N[C@H]1COCC1=O` [CAP7-L-Leu/drawing 72] were 3.1 µM, 0.69 µM and 0.018 µM.
In the same order, the values of `CC(C)C[C@H](NC(=O)c1ccc(N(C)C)cc1)C(=O)N[C@@H]1COCC1=O` [CAP7-L-Leu/drawing 73] are 3.9 µM, 1.1 µM and 0.023 µM.
Take `CCCCC(NC(=O)c1ccc(N(C)C)cc1)C(=O)NC1C(=O)COC1C` [CAP7-L-Nle/drawing 70]: the Ki at Mammalian Cathepsin S was 6.8 µM; at Mammalian Cathepsin L, 46.7 µM; on Mammalian Cathepsin K it was 3.1 µM.
In the same order, the values of `CCCC[C@H](NC(=O)c1ccc(N(C)C)cc1)C(=O)N[C@@H]1C(=O)CO[C@H]1C` [CAP7-L-Nle/drawing 71] are 6.2 µM, 49.9 µM and 1.3 µM.
Taken in the same sequence, the figures for `C[C@H]1OCC(=O)[C@H]1NC(=O)[C@H](CC(C)(C)C)NC(=O)c1ccc(N(C)C)cc1` [CAP7-L-tBu-Ala/drawing 69] were 2.7 µM, 13.1 µM and 0.04 µM.
Taken in the same sequence, the figures for `CCCC[C@H](NC(=O)c1ccoc1)C(=O)N[C@@H]1C(=O)CO[C@@H]1C` [CAP8-L-Nle/drawing 69] were 1.5 µM, 54.4 µM and 13.2 µM.
